# Test results published in PubChem BioAssay (NCI).
# Where “and” joins values, the source holds several entries; their conditions need not be identical. Identical values can stand only once.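 Test compounds were applied to cells in 96-well plates for 48 hours at 5 doses. Abbreviation: GI50, concentration required for 50% inhibition of growth. TGI marks complete inhibition of growth.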
# Key:
# Assay in all cases: inhibition of tumour cell growth, NCI panel, 48 h
# NCI-H522 lung = system: NCI-H522 lung
# BT-549 breast = system: BT-549 breast
# SK-MEL-28 melanoma = system: SK-MEL-28 melanoma
# MDA-MB-231 breast = system: MDA-MB-231 breast
# SK-OV-3 ovarian = system: SK-OV-3 ovarian
# MALME-3M melanoma = system: MALME-3M melanoma
# NCI-H226 lung = system: NCI-H226 lung
# MOLT-4 leukemia = system: MOLT-4 leukemia
# A549 NSCLC = system: A549 NSCLC
# RXF 393 renal = system: RXF 393 renal
Structure (SMILES),TGI (NCI-H522 lung),TGI (BT-549 breast),TGI (SK-MEL-28 melanoma),TGI (MDA-MB-231 breast),TGI (SK-OV-3 ovarian),TGI (MALME-3M melanoma),TGI (NCI-H226 lung),TGI (MOLT-4 leukemia),TGI (A549 NSCLC),TGI (RXF 393 renal),GI50 (NCI-H522 lung),GI50 (BT-549 breast),GI50 (SK-MEL-28 melanoma),GI50 (MDA-MB-231 breast),GI50 (SK-OV-3 ovarian),GI50 (MALME-3M melanoma),GI50 (NCI-H226 lung),GI50 (MOLT-4 leukemia),GI50 (A549 NSCLC),GI50 (RXF 393 renal)
COC(=O)c1cccc(COc2ccc([N+](=O)[O-])cc2Cl)c1,> 100 µM,> 100 µM,> 100 µM,> 100 µM,> 100 µM,> 100 µM,> 100 µM,> 100 µM,> 100 µM,> 100 µM,–,–,–,–,–,–,–,–,–,–
CCCCCCOc1ccc(/C=N/Nc2cc(C)nc3ccc(Br)cc23)cc1,3.32 µM,3.91 µM,3.24 µM,3.08 µM,3.07 µM,3.38 µM,3.16 µM,3.18 µM,3.43 µM,2.95 µM,1.7 µM,1.91 µM,1.81 µM,1.62 µM,1.66 µM,1.87 µM,1.6 µM,1.2 µM,1.78 µM,1.55 µM
O=C1/C=C/[C@@H](O)[C@@H]2C[C@@H](O)C[C@H]2/C=C/CCCCO1,5.63 µM,> 100 µM,–,1.31 µM,> 100 µM,3.24 µM,–,–,> 100 µM,–,1.77 µM,0.607 µM,0.28 µM,0.298 µM,1.05 µM,0.321 µM,0.224 µM,1.4 µM,0.422 µM,0.424 µM
Clc1ccc2c(NCCCNCc3ccc4c(c3)OCO4)ccnc2c1,8.01 µM,17.7 µM,3.57 µM,5.78 µM,29.3 µM,3.48 µM,40.9 µM,10.2 µM,22.8 µM,5.07 µM,2.44 µM,4.47 µM,1.86 µM,1.72 µM,14.7 µM,1.86 µM,17.8 µM,2.68 µM,9.47 µM,1.87 µM
CN(Cc1cccc(Cl)c1)c1ccc(CO)c(Cl)c1,41.4 µM,34.5 µM,43.9 µM,59.9 µM,28.3 µM,42.3 µM,0.284 µM,56.6 µM,23.9 µM,23.4 µM,17.2 µM,14.6 µM,16.4 µM,17.4 µM,8.16 µM,18.7 µM,0.113 µM,20 µM,5.19 µM,8.55 µM
Nc1c(S(=O)(=O)O)cc2c(c1Cl)C(=O)c1ccccc1C2=O,> 100 µM,> 100 µM,> 100 µM,> 100 µM,> 100 µM,> 100 µM,> 100 µM,> 100 µM,> 100 µM,> 100 µM,> 100 µM,> 100 µM,> 100 µM,> 100 µM,> 100 µM,> 100 µM,> 100 µM,> 100 µM,> 100 µM,> 100 µM
CC(NC(=O)C1(N)CCCC1)C(=O)O (stereo unspecified),> 100 µM,> 100 µM,> 100 µM,> 100 µM,> 100 µM,> 100 µM,> 100 µM,> 100 µM,> 100 µM,> 100 µM,–,–,–,–,–,–,–,–,–,–
C=C(C=O)[C@@H]1CC=C(C=O)CC1,> 100 µM,> 30.5 µM,5.87 µM,20.1 µM,50.5 µM,> 26 µM,98.7 µM,> 100 µM,> 91.7 µM,> 100 µM,37.8 µM,3.26 µM,2.43 µM,6.88 µM,20.1 µM,4.39 µM,21.1 µM,3.69 µM,35.1 µM,3.72 µM
Cn1cc(C2=C(c3cn(CCCN/C(N)=N\[N+](=O)[O-])c4ccccc34)C(=O)NC2=O)c2ccccc21,9.99 µM,9.38 µM,18.5 µM,16.5 µM,> 20 µM,15.9 µM,> 19.1 µM,> 16.4 µM,> 25 µM,7.3 µM,2.44 µM,2.1 µM,3.38 µM,3.8 µM,3.43 µM,6.38 µM,4.56 µM,2.25 µM,8.52 µM,2 µM
NC1=C(O)/C(=N/NS(=O)(=O)c2ccccc2)C(c2cccc(Cl)c2)O1 (stereo unspecified),26.4 µM,> 100 µM,46.2 µM,37.6 µM,> 100 µM,54.8 µM,> 90.9 µM,19.1 µM,> 100 µM,29.6 µM,–,–,–,–,–,–,–,–,–,–
O=P1(NCCCl)OCCC(OO)N1CCCl (stereo unspecified),25.6 µM,> 100 µM,39.4 µM,> 100 µM,> 100 µM,31.7 µM,> 100 µM,> 83.4 µM,> 100 µM,32.4 µM,–,–,–,–,–,–,–,–,–,–
COc1ccccc1NC(=O)C(=O)C(C#N)CC(C)(C)C=O (stereo unspecified),> 100 µM,> 100 µM,> 100 µM,> 100 µM,> 100 µM,> 100 µM,> 100 µM,> 100 µM,> 100 µM,> 100 µM,–,–,–,–,–,–,–,–,–,–
N[C@@H](Cc1ccc(N(CCCl)CCCl)cc1)C(=O)O,29.5 µM and 66.8 µM,> 100 µM and 100 µM,> 100 µM and 73.5 µM and 165 µM,> 100 µM and 134 µM,> 100 µM and 35.6 µM and 85.9 µM,30.5 µM and 35.3 µM and 66 µM,> 100 µM and 52.7 µM and 156 µM,20.6 µM and 24.5 µM and 52.6 µM,> 100 µM and > 90.2 µM and 186 µM,47.1 µM and 32.9 µM and 69.9 µM,14.4 µM,27.8 µM,68.2 µM and 27.3 µM,> 100 µM,19.3 µM and 13.9 µM,13.7 µM and 18.3 µM,44.6 µM and 26.6 µM,3.43 µM and 1.45 µM,23.9 µM and 16.7 µM,16.9 µM and 15.9 µM
Nc1ncnc2c1c(-c1ccc(Oc3ccccc3)cc1)nn2C[C@H]1SSC[C@H]1O,3.16 µM,6.52 µM,0.0793 µM,3.71 µM,1.31 µM,0.332 µM,3.42 µM,0.0492 µM,2.07 µM,4.31 µM,0.953 µM,2.18 µM,0.0258 µM,1.33 µM,0.222 µM,0.0815 µM,1.43 µM,0.0184 µM,0.394 µM,1.35 µM
O=C(/C=C/c1ccco1)c1cccc(Nc2nc(Nc3ccccc3)nc(Nc3ccccc3)n2)c1,> 100 µM,> 82.9 µM,> 100 µM,> 100 µM,> 100 µM,> 100 µM,> 82 µM,> 31.8 µM,> 38.2 µM,8.15 µM,44.6 µM,19 µM,23.7 µM,5.4 µM,> 86.6 µM,> 66.7 µM,18.3 µM,4.34 µM,0.357 µM,1.36 µM
